Key:
[1] = molecular target: SNF-related serine/threonine-protein kinase (Homo sapiens) (UniProt Q9NRH2); details: Compound concentration 1000.0 nM
[2] = molecular target: Cyclin-dependent kinase 17 (Homo sapiens) (UniProt Q00537); details: Compound concentration 1000.0 nM
[3] = molecular target: Phosphatidylinositol 4-phosphate 3-kinase C2 domain-containing subunit beta (Homo sapiens) (UniProt O00750); details: Compound concentration 1000.0 nM
[4] = molecular target: LIM domain kinase 1 (Homo sapiens) (UniProt P53667); details: Compound concentration 1000.0 nM
[5] = molecular target: Mitogen-activated protein kinase kinase kinase 13 (Homo sapiens) (UniProt O43283); details: Compound concentration 1000.0 nM
[6] = molecular target: Serine/threonine-protein kinase Chk1 (Homo sapiens) (UniProt O14757); details: Compound concentration 1000.0 nM
[7] = test system: Tyrosine-protein kinase ABL1 (Homo sapiens), P00519 [F317L]; details: Compound concentration 1000.0 nM
[8] = molecular target: Calcium/calmodulin-dependent protein kinase kinase 2 (Homo sapiens) (UniProt Q96RR4); details: Compound concentration 1000.0 nM
[9] = test system: Epidermal growth factor receptor (Homo sapiens), P00533 [L858R,T790M]; details: Compound concentration 1000.0 nM
[10] = molecular target: High affinity nerve growth factor receptor (Homo sapiens) (UniProt P04629); details: Compound concentration 1000.0 nM
[11] = molecular target: Myosin light chain kinase 2, skeletal/cardiac muscle (Homo sapiens) (UniProt Q9H1R3); details: Compound concentration 1000.0 nM
[12] = molecular target: Dual specificity testis-specific protein kinase 1 (Homo sapiens) (UniProt Q15569); details: Compound concentration 1000.0 nM
Sequence of Dual specificity testis-specific protein kinase 1 (Homo sapiens) (Q15569 whole entry, looked up): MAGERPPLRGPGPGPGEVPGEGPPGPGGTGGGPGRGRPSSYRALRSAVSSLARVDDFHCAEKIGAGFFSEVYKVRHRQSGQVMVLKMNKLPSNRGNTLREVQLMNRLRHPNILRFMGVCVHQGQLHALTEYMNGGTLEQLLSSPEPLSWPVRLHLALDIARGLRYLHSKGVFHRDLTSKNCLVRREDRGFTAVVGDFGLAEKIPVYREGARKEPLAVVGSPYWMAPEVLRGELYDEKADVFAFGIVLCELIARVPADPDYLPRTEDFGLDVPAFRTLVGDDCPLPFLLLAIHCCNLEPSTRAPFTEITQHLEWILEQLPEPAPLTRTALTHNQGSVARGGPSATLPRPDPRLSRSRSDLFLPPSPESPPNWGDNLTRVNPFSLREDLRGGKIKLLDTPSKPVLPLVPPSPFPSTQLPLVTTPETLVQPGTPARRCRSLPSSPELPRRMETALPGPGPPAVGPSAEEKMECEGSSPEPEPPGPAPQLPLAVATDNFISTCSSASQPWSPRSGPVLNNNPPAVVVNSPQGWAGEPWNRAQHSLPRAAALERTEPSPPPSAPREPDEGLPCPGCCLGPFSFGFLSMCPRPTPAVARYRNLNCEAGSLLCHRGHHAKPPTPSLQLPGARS

[13] = molecular target: Serine/threonine-protein kinase ICK (Homo sapiens) (UniProt Q9UPZ9); details: Compound concentration 1000.0 nM
[14] = molecular target: Rho-associated protein kinase 2 (Homo sapiens) (UniProt O75116); details: Compound concentration 1000.0 nM
Sequence of Rho-associated protein kinase 2 (Homo sapiens) (O75116 whole entry, looked up): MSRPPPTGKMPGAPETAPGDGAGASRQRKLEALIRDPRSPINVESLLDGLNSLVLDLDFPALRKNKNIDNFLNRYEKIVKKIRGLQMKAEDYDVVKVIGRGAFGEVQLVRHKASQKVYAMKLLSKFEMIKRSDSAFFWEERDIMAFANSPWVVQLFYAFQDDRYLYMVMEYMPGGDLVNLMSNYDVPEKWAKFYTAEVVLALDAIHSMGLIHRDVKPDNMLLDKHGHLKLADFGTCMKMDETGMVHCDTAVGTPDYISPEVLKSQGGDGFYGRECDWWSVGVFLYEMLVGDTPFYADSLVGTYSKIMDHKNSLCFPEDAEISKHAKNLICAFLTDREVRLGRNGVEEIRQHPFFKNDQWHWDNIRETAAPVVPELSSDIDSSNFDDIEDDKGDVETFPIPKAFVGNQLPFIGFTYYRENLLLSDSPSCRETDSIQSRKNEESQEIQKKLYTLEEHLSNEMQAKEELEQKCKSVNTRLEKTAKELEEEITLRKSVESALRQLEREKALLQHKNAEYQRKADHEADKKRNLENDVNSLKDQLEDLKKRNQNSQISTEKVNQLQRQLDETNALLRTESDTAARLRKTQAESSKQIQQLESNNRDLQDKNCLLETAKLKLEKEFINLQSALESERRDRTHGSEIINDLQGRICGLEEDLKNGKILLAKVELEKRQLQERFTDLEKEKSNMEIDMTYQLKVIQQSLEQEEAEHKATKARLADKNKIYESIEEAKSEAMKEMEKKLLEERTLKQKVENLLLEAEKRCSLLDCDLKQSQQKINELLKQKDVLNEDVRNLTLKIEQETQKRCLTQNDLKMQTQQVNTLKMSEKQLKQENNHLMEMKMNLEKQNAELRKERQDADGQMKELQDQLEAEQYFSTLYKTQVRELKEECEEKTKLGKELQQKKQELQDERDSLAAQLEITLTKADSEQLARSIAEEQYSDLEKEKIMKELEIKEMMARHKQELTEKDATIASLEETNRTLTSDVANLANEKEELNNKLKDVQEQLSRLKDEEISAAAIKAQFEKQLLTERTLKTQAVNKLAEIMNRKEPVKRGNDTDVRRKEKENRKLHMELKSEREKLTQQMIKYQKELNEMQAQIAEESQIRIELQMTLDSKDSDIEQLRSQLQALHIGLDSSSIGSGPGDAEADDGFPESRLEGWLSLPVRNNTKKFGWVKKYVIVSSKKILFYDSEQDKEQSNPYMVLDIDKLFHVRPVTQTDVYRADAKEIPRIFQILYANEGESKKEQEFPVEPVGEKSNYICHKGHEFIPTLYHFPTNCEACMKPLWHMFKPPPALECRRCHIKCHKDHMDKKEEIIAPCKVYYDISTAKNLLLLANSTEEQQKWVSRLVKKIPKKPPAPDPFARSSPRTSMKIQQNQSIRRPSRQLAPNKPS

[15] = molecular target: Phosphatidylinositol 5-phosphate 4-kinase type-2 gamma (Homo sapiens) (UniProt Q8TBX8); details: Compound concentration 1000.0 nM
[16] = molecular target: Serine/threonine-protein kinase PAK 2 (Homo sapiens) (UniProt Q13177); details: Compound concentration 1000.0 nM
Sequence of Serine/threonine-protein kinase PAK 2 (Homo sapiens) (Q13177 whole entry): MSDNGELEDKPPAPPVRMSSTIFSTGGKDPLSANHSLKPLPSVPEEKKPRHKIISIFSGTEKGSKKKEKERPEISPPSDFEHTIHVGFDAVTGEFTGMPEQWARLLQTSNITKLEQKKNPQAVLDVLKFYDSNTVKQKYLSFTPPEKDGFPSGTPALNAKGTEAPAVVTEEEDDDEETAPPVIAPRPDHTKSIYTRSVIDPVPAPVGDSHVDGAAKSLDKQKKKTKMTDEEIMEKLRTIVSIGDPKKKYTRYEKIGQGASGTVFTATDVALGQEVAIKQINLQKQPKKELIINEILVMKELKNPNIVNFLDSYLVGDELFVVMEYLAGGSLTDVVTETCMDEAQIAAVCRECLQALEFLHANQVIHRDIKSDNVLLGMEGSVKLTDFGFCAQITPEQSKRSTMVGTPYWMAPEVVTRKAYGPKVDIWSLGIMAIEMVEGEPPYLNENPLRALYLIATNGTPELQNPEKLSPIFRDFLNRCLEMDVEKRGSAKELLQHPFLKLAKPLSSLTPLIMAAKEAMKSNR

[17] = molecular target: Tyrosine-protein kinase ABL1 (Homo sapiens) (UniProt P00519); details: Compound concentration 1000.0 nM
[18] = molecular target: Serine/threonine-protein kinase MRCK beta (Homo sapiens) (UniProt Q9Y5S2); details: Compound concentration 1000.0 nM
[19] = molecular target: Tyrosine-protein kinase Fes/Fps (Homo sapiens) (UniProt P07332); details: Compound concentration 1000.0 nM
[20] = test system: Epidermal growth factor receptor (Homo sapiens), P00533 [L858R]; details: Compound concentration 1000.0 nM
[21] = molecular target: Myosin light chain kinase (Homo sapiens) (UniProt Q32MK0); details: Compound concentration 1000.0 nM
[22] = test system: Mast/stem cell growth factor receptor Kit (Homo sapiens), P10721 [V559D,T670I]; details: Compound concentration 1000.0 nM
Sequence of Mast/stem cell growth factor receptor Kit (Homo sapiens), P10721 [V559D,T670I] (P10721 whole entry V559D/T670I): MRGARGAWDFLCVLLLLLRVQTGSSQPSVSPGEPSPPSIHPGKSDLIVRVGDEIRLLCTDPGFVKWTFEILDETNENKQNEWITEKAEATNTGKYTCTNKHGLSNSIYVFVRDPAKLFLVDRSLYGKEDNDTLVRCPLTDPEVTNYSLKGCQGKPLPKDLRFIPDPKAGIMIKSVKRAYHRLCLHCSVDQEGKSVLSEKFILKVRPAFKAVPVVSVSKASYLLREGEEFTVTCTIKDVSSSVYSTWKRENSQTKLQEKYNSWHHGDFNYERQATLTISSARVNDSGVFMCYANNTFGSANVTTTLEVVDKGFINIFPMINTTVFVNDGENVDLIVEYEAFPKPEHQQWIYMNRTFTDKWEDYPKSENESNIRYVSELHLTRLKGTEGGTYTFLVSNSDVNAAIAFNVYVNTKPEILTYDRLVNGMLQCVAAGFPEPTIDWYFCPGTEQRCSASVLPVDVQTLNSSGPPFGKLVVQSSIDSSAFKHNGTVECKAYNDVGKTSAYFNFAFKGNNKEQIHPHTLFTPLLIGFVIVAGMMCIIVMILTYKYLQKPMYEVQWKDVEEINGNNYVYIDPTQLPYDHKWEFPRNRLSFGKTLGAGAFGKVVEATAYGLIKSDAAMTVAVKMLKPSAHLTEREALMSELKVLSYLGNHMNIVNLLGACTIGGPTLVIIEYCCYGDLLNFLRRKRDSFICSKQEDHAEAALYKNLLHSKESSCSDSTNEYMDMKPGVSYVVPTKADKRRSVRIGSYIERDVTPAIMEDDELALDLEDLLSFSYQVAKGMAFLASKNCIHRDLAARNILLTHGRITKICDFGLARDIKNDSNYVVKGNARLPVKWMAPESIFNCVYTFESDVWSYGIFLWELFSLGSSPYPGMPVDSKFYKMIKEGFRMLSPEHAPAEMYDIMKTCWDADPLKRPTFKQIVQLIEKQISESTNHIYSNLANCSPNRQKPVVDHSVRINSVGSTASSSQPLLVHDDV

[23] = molecular target: T1, Alpha-2A adrenergic receptor (Homo sapiens) (UniProt P08913); details: Compound concentration 10.0 uM
T1 sequence (whole entry): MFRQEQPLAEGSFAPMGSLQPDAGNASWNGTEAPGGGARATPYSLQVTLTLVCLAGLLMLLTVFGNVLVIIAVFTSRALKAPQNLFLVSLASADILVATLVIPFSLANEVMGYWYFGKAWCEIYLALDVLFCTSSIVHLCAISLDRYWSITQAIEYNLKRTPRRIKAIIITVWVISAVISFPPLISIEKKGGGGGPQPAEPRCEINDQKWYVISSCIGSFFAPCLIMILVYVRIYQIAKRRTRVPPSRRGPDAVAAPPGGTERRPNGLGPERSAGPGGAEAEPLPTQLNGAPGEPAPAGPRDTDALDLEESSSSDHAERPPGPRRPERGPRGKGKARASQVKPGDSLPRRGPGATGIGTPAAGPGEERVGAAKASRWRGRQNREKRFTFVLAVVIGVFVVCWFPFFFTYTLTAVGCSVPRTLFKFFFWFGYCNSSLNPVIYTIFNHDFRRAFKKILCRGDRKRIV

[24] = molecular target: Serine/threonine-protein kinase SIK2 (Homo sapiens) (UniProt Q9H0K1); details: Compound concentration 1000.0 nM
[25] = molecular target: Phosphatidylinositol 4,5-bisphosphate 3-kinase catalytic subunit gamma isoform (Homo sapiens) (UniProt P48736); details: Compound concentration 1000.0 nM
[26] = molecular target: Calcium/calmodulin-dependent protein kinase kinase 1 (Homo sapiens) (UniProt Q8N5S9); details: Compound concentration 1000.0 nM
[27] = molecular target: Tyrosine-protein kinase Yes (Homo sapiens) (UniProt P07947); details: Compound concentration 1000.0 nM
[28] = molecular target: Receptor-interacting serine/threonine-protein kinase 2 (Homo sapiens) (UniProt O43353); details: Compound concentration 1000.0 nM
Sequence of Receptor-interacting serine/threonine-protein kinase 2 (Homo sapiens) (O43353 whole entry, canonical isoform): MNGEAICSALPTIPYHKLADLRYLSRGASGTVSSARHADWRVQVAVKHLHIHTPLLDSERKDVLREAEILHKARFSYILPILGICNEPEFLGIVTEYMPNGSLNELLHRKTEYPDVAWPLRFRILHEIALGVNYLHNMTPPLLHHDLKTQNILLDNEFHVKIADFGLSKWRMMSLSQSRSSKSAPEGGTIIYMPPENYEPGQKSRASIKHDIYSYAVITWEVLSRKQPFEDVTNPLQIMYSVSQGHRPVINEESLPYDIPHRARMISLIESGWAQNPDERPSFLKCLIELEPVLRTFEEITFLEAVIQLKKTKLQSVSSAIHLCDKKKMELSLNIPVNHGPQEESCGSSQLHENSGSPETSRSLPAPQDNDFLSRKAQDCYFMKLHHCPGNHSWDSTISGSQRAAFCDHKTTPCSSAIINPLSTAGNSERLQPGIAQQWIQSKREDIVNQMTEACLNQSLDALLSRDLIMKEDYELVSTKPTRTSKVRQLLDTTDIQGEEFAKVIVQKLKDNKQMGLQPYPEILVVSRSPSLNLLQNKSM

[29] = molecular target: Phosphorylase b kinase regulatory subunit alpha, liver isoform (Homo sapiens) (UniProt P46019); details: Compound concentration 1000.0 nM
[30] = molecular target: Tyrosine-protein kinase Fyn (Homo sapiens) (UniProt P06241); details: Compound concentration 1000.0 nM
[31] = molecular target: Cytoplasmic tyrosine-protein kinase BMX (Homo sapiens) (UniProt P51813); details: Compound concentration 1000.0 nM
[32] = molecular target: Phosphatidylinositol 3-kinase C2 domain-containing subunit gamma (Homo sapiens) (UniProt O75747); details: Compound concentration 1000.0 nM
[33] = molecular target: Mitogen-activated protein kinase kinase kinase 15 (Homo sapiens) (UniProt Q6ZN16); details: Compound concentration 1000.0 nM
[34] = molecular target: Serine/threonine-protein kinase PAK 6 (Homo sapiens) (UniProt Q9NQU5); details: Compound concentration 1000.0 nM
[35] = molecular target: Dual specificity tyrosine-phosphorylation-regulated kinase 1A (Homo sapiens) (UniProt Q13627); details: Compound concentration 1000.0 nM
[36] = molecular target: Angiopoietin-1 receptor (Homo sapiens) (UniProt Q02763); details: Compound concentration 1000.0 nM
[37] = molecular target: Serine/threonine-protein kinase 3 (Homo sapiens) (UniProt Q13188); details: Compound concentration 1000.0 nM
Sequence of Serine/threonine-protein kinase 3 (Homo sapiens) (Q13188 whole entry): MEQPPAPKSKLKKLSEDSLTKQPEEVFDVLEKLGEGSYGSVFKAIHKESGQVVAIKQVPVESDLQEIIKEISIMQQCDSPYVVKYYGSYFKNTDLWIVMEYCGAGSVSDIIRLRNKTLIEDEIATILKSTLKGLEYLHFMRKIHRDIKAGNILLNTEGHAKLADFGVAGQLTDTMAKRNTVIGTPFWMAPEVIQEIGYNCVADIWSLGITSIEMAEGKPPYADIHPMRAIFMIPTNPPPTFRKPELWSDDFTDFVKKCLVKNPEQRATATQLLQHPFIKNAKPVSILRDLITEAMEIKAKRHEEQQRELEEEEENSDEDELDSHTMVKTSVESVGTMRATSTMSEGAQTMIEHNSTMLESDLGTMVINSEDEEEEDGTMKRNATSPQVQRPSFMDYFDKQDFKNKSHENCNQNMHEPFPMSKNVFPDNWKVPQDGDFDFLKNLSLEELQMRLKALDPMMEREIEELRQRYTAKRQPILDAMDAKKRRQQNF

[38] = test system: Tyrosine-protein kinase ABL1 (Homo sapiens), P00519 [F317I]; details: Compound concentration 1000.0 nM

Sequence of Cyclin-dependent kinase 17 (Homo sapiens) (Q00537 whole entry, looked up, the tested form may be a part): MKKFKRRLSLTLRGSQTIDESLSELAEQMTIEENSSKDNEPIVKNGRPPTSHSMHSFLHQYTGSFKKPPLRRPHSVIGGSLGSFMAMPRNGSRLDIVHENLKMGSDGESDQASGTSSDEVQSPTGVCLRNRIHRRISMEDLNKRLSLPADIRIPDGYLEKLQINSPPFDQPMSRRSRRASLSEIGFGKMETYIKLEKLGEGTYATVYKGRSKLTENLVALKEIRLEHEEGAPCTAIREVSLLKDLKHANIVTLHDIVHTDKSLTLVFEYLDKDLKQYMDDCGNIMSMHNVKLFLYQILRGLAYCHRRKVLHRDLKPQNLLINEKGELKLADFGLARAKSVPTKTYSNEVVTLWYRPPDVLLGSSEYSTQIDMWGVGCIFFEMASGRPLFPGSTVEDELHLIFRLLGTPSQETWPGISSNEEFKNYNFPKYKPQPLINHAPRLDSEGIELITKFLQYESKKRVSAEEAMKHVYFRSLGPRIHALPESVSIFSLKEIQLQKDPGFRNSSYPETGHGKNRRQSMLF

O=C(NC[C@@H]1[C@H]2CN(C(=O)OCc3cc(C(F)(F)F)cc(C(F)(F)F)c3)C[C@@H]12)c1ccc2[nH]nnc2c1 [BI 2545]
inactive: residual activity [1] 77% | residual activity [2] 100% | residual activity [3] 65% | residual activity [4] 100% | residual activity [5] 86% | residual activity [6] 92% | residual activity [7] 91% | residual activity [8] 91% | residual activity [9] 80% | residual activity [10] 85% | residual activity [11] 97% | residual activity [12] 79% | residual activity [13] 100% | residual activity [14] 90% | residual activity [15] 100% | residual activity [16] 100% | residual activity [17] 100% | residual activity [18] 100% | residual activity [19] 95% | residual activity [20] 100% | residual activity [21] 98% | residual activity [22] 100% | inhibition [23] 14.3% | residual activity [24] 100% | residual activity [25] 76% | residual activity [26] 91% | residual activity [27] 100% | residual activity [28] 64% | residual activity [29] 100% | residual activity [30] 85% | residual activity [31] 81% | residual activity [32] 100% | residual activity [33] 53% | residual activity [34] 93% | residual activity [35] 86% | residual activity [36] 89% | residual activity [37] 87% | residual activity [38] 88%

Cc1nccc(COC(=O)N2C[C@@H]3[C@@H](CNC(=O)c4ccc5[nH]nnc5c4)[C@@H]3C2)n1 [BI 3017]
inactive: residual activity [1] 98% | residual activity [2] 90% | residual activity [3] 97% | residual activity [4] 100% | residual activity [5] 65% | residual activity [6] 100% | residual activity [7] 70% | residual activity [8] 100% | residual activity [9] 100% | residual activity [10] 94% | residual activity [11] 90% | residual activity [12] 98% | residual activity [13] 100% | residual activity [14] 86% | residual activity [15] 100% | residual activity [16] 100% | residual activity [17] 95% | residual activity [18] 82% | residual activity [19] 99% | residual activity [20] 78% | residual activity [21] 97% | residual activity [22] 95% | inhibition [23] 2.2% | residual activity [24] 92% | residual activity [25] 89% | residual activity [26] 100% | residual activity [27] 100% | residual activity [28] 100% | residual activity [29] 97% | residual activity [30] 100% | residual activity [31] 88% | residual activity [32] 99% | residual activity [33] 95% | residual activity [34] 95% | residual activity [35] 81% | residual activity [36] 90% | residual activity [37] 97% | residual activity [38] 81%

— ChEMBL document CHEMBL4507275, “Data for DCP probe BI-2545” (2021)
